Earlier results, collected in patent US8680301B2, “Lipase activity inhibitors containing high-molecular weight polyphenol fractions, tea extracts, and processes for producing the same” (Suntory Holdings Limited, priority 2004, dated 2014).

Conditions: clinical reports

Structure (SMILES)	Reported side effects
OC1(c2ccc(Cl)cc2)c2ccccc2C2=NCCN21 (centres unmarked) [Mazindole®]	side effects such as excessive thirst (mouth dryness), constipation, epigastric distress, nausea and vomiting
CCCCCCCCCCC[C@@H](C[C@@H]1OC(=O)[C@H]1CCCCCC)OC(=O)[C@H](CC(C)C)NC=O [Xenical®]	side effects such as fatty stool, increased stool frequency, soft stool, diarrhea and stomachache
